{"source": "patent EP0294814B1", "about": "“Treating agents for renal diseases” (DAIICHI PHARMACEUTICAL CO., LTD., priority 1987, dated 1988)", "key": {"thromboxane A₂": {"test_system": "thromboxane A₂", "conditions": "known from prior art; cited from earlier work"}, "[1]": {"test_system": "diabetic nephropathy or glomerulonephritis", "conditions": "applied to diabetic nephropathy or glomerulonephritis, literature reports; cited from earlier work"}, "[2]": {"experiment": "Diabetic nephropathy model: influence on body weight of SHR and diabetic SHR", "format": "in vivo, rat", "conditions": "SHR", "method": "(§1) 5-Week old spontaneous hypertensive male rats (SHR) and normotensive Wister Kyoto rats (WKY), both available from Nippon Charles River, were used. Streptozotocin (STZ) was dissolved in a 0.1M citrate buffer solution (pH 4.5) and injected to the tail vein of the rat at a dose level of 50 mg/kg to prepare a diabetic rat. For control, the rat received 1 ml/kg of the citrate buffer solution alone through administration to the tail vein. After one week from the STZ administration, blood was taken from the tail vein of the unanesthetized rat, and the blood sugar level was measured. Those rats having a blood sugar level of […] or higher were used as diabetic rats. […]"}, "[3]": {"experiment": "Hydronephrosis model: clearance test", "format": "in vivo, SD male rat", "conditions": "Normal Kidney, 0.3 µg/min infused into renal artery, mean±S.E. of 5 cases", "method": "(§2) An abdominal incision was made in a SD male rat having a body weight of from 300 to 400 g under light anesthesia with diethyl ether. After the left urinary tract was ligated in the middle between the bladder and the kidney, the incision was closed, and the animal was fed on foods and tap water, ad lib.\n(§3) After 18 hours from the ligation of the urinary tract, a cannula was inserted in the urinary tracts on both sides, the right femoral artery and the right femoral vein for collection of blood samples, infusion of inulin and infusion of p-aminohippuric acid, respectively, under Inactin anesthesia. Physiological saline containing 20 mg/ml of inulin and physiological saline containing 4 mg/ml of p-aminohippuric acid were continuously infused each at a rate of 0.4 ml/min in a 1/20 amount of the body weight. On confirming that the urinary output became constant after 50 minutes from the start of the infusion, urine was collected separately from the right and left urinary tracts at intervals of 20 minutes, and blood samples were obtained at the middle between urine collections. Immediately preceding the start of urine collection, infusion of physiological saline at a rate of 25 µl/min into the left femoral artery was instituted and continued for 40 minutes. Thereafter, a solution of a hydrochloride hemihydrate of Compound A in physiological saline was continuously infused at a dose level of 0.3 µg/25 µl/min/rat for 40 minutes into the inlet of the renal artery through a retrograde cannula inserted from the left femoral artery. Inulin levels in urine and in blood were determined according to the anthrone method (H.H. Hilger et al., Pflügers Arch Physiol., Vol. 267, 218 (1958)), and p-aminohippuric acid levels in urine and blood were determined according to the method of Smith et al. (H.W. Smith et al., J. Clin. Invest., Vol. 24, 388 (1945)), to calculate clearance values of inulin and p-aminohippuric acid."}, "Hydronephrotic Kidney": {"test_system": "Hydronephrotic Kidney", "experiment": "Hydronephrosis model: clearance test", "format": "in vivo, SD male rat", "conditions": "Normal Kidney, 0.3 µg/min infused into renal artery, mean±S.E. of 5 cases", "method": "as §2, §3"}, "[4]": {"test_system": "Ischemic Insufficient Kidney", "experiment": "Ischemic renal insufficiency model: renal function", "format": "in vivo, SD rat", "conditions": "10 mg/kg intraperitoneally 30 minutes before ligature of renal arteries; 24 hours after reperfusion; mean±S.E.", "method": "An abdominal incision was made in a SD vale rat weighing 300 to 450 g under pentobarbital anesthesia, and renal arteries of both sides were ligated with a clamp for 40 minutes and then reopened to prepare an animal suffering from isochemic renal insufficiency.\nThe hydrochloride hemihydrate of Compound A was dissolved in physiological saline, and administered intraperitoneally to the test animal at a dose level of 10 mg/2 ml/kg 30 minutes before the ligature of the renal arteries. The control group received the same volume of physiological saline.\nAfter the blood flow of the renal arteries was restored, the animal was fed on foods and tap water ad lib. for 24 hours. The clearance values of inulin and p-aminohippuric acid were determined in the same manner as described in Example 2."}, "Diabetic SHR": {"test_system": "Diabetic SHR", "experiment": "Diabetic nephropathy model: excretion of protein, γ-GTP and NAβG in the urine", "format": "in vivo, rat", "conditions": "after 4 months of administration", "method": "as §1\nAfter 4 months from the start of the administration of Compound A, urine was collected for 24 hours, and the protein, γ-GTP activity and NAβG activity in the urine were determined by the method of Kinsbury et al., the method of using a commercially available kit (γ-GTP Test Pack, produced by Sankyo Co., Ltd.), and the method of Hasebe et al., respectively."}, "rats": {"test_system": "rats", "experiment": "Acute toxicity in rats", "format": "in vivo", "text": "Acute toxicities of a hydrochloride hemihydrate of Compound A in rats through oral administration or intravenous injection were as follows."}}, "note": "Structures can show the parent of a compound that is named as a salt."}
{"smiles": "Cl.O=C(O)/C=C/c1ccc(Cn2ccnc2)cc1", "note": "[(E)-3-(4-(1-Imidazolylmethyl)phenyl)propenoic acid hydrochloride, reference compound]", "values": [{"measurement": "inhibition of the synthesis of thromboxane A₂", "setting": "thromboxane A₂", "result": "inhibit the synthesis of thromboxane A₂"}, {"measurement": "effect in treatment of renal diseases", "setting": "[1]", "result": "not satisfactory"}]}
{"smiles": "O=C(O)c1ccc2c(c1)CCC(Cn1ccnc1)C2", "note": "(centres unmarked) [Compound A, 6-(1-imidazolylmethyl)-5,6,7,8-tetrahydronaphthalene-2-carboxylic acid]", "values": [{"measurement": "inhibition of the synthesis of thromboxane A₂", "setting": "thromboxane A₂", "result": "inhibit the synthesis of thromboxane A₂"}, {"measurement": "Body Weight (Mean±S.E.)", "setting": "[2]; 1 mg/kg/day, 1 Month after start of admin.", "result": "280.3 ± 4.0", "unit": "g"}, {"measurement": "Body Weight (Mean±S.E.)", "setting": "[2]; 1 mg/kg/day, 5 Months after start of admin.", "result": "392.4 ± 5.6", "unit": "g"}, {"measurement": "Body Weight (Mean±S.E.)", "setting": "[2]; 10 mg/kg/day, 1 Month after start of admin.", "result": "278.7 ± 5.3", "unit": "g"}, {"measurement": "Body Weight (Mean±S.E.)", "setting": "[2]; 10 mg/kg/day, 5 Months after start of admin.", "result": "385.3 ± 7.5", "unit": "g"}, {"measurement": "Inulin Clearance", "setting": "[3]", "result": "1.77± 0.13", "unit": "ml/min/ kidney"}, {"measurement": "Urinary Output", "setting": "Hydronephrotic Kidney", "result": "7.47± 0.83", "unit": "µℓ/min/ kidney"}, {"measurement": "p-Aminohippuric Acid Clearance", "setting": "Hydronephrotic Kidney", "result": "5.95±0.50", "unit": "ml/min/kidney"}, {"measurement": "Inulin Clearance", "setting": "[4]", "result": "0.32± 0.05", "unit": "ml/min/kidney"}, {"measurement": "Urinary Output", "setting": "[4]", "result": "11.30± 1.53", "unit": "µl/min/kidney"}, {"measurement": "p-Aminohippuric Acid Clearance", "setting": "[4]", "result": "1.01±0.17", "unit": "ml/min/kidney"}, {"measurement": "Excretion in Urine for 24 h NAβG", "setting": "Diabetic SHR; 1 mg/kg/day oral", "result": "0.536± 0.086", "unit": "mg/100 g B.W."}, {"measurement": "Excretion in Urine for 24 h Protein", "setting": "Diabetic SHR; 1 mg/kg/day oral", "result": "6.82± 1.56", "unit": "mg/100 g B.W."}, {"measurement": "Excretion in Urine for 24 h γ-GTP", "setting": "Diabetic SHR; 1 mg/kg/day oral", "result": "2.83± 0.32", "unit": "U/100 g B.W."}, {"measurement": "Excretion in Urine for 24 h NAβG", "setting": "Diabetic SHR; 10 mg/kg/day oral", "result": "0.412± 0.056", "unit": "mg/100 g B.W."}, {"measurement": "Excretion in Urine for 24 h Protein", "setting": "Diabetic SHR; 10 mg/kg/day oral", "result": "4.00± 0.59", "unit": "mg/100 g B.W."}, {"measurement": "Excretion in Urine for 24 h γ-GTP", "setting": "Diabetic SHR; 10 mg/kg/day oral", "result": "2.45± 0.22", "unit": "U/100 g B.W."}]}
{"smiles": "O=C(O)c1ccc2c(c1)CCC(Cn1ccnc1)C2", "note": "(centres unmarked) [hydrochloride hemihydrate of Compound A, 6-(1-imidazolylmethyl)-5,6,7,8-tetrahydronaphthalene-2-carboxylic acid]", "values": [{"measurement": "LD₅₀", "setting": "rats; Female rats, i.v.", "result": "783 (i.v.) mg"}, {"measurement": "LD₅₀", "setting": "rats; Female rats, p.o.", "result": "1994 (p.o.) mg"}, {"measurement": "LD₅₀", "setting": "rats; Male rats, i.v.", "result": 807, "unit": "mg"}, {"measurement": "LD₅₀", "setting": "rats; Male rats, p.o.", "result": 2438, "unit": "mg"}]}
